From US20260035409A1, “BRINP2-DERIVED PEPTIDE COMPOSITIONS FOR TREATING OBESITY AND WEIGHT MANAGEMENT” (The Board of Trustees of the Leland Stanford Junior …, priority 2022, published 2026)
Ends that are not written are not given here.

What was measured:
[1] = acute food intake in fasted lean C57BL/6 mice after I.P. injection; assay type: in vivo; conditions: 5 mg/kg I.P., up to 6 hours
Method: (§1) We next performed in vivo studies to determine whether any of these peptides affected food intake or blood glucose levels—two biological consequences of cfos activation. For acute food intake studies, lean, 8-week-old C57BL/6 mice (N=3/group) were fasted for 16 hours prior to administration of vehicle (saline), GLP-1 at 2 mg/kg, or FGF3_4, EDIL3_4, BRNP2_5, SCG1_9, FSTL4_3, and FGF5_5 peptides at 5 mg/kg. The food intake was then monitored over 6 hours.
Mouse studies. Animal experiments were performed per procedures approved by the Institutional Animal Care and Use Committee of the Stanford Animal Care and Use Committee (APLAC) protocol number #32982. C57BL/6J male mice were purchased from the Jackson Laboratory (#000664) and were used after 1 week of acclimatization after import into the facility. Unless otherwise stated, all mice were in good health and housed in a temperature-controlled (20-22° C.) room on a 12-hour light/dark cycle with ad lib access to food and water.
(§2) For acute experiments, after overnight fasting for 16 hours, 8-week-old C57BL/6 mice were weighed and I.P. injected with either saline, GLP-1 at 2 mg/kg or peptides at 5 mg/kg (N=3 mice per group). Fasted blood glucose and food intake was then monitored for 6 hours.

[2] = tested on: cfos expression in NS-1 cells; assay: cfos expression after 1 h peptide treatment, NS-1 cells (qRT-PCR); assay type: cell-based, rat; conditions: for cfos activation, alanine substitutions in the BRP sequence: 100 μg/kg, fully active = >15-fold over vehicle
Text: A feature of many known biologically active peptide hormones is the presence of an amidated C-terminus, which can be important for peptide bioactivity, as for gastrin-releasing peptide neuromedin-B, or for increased peptide stability, as for GLP-1. Therefore, the peptide library was constructed with an amide (NH2) group at the C-terminus as the only modification for comparative studies between peptides (FIG. 2a). In total, we generated a library of 100 peptides for functional biological screening. The peptide solubility was deduced according to its overall charge and reconstituted accordingly to optimal solubility. For all peptides, quality control by mass spectrometry was performed which validated the purity of the synthesized peptides for the primary screen according to their theoretical molecular weight (FIG. 8). Next, we functionally explored the potency of 100 of the peptides in activating cfos expression, a marker of cellular activity, after 1 hour of peptide treatment across two cell lines, Neuroscreen-1, NS-1 (rat neuronal origin) and INS1 cells (rat pancreatic origin) (FIG. 2b). Glucagon-like peptide 1 (GLP-1^7-37), a 30-mer peptide ligand for the glucagon receptor family of G protein-coupled receptors in pancreatic 3-cells, was used as a positive control at 30 μM in INS1 cells. NGF (Nerve Growth Factor) was used as a positive control at 2 nM in NS-1 cells. Expectedly, we find that GLP-1^7-37 induces a ˜4-fold elevation of cfos expression in INS1 cells and NGF induces a ˜10-fold induction of cfos expression in NS-1 cells (FIG. 2b). Across the 100 tested peptides, 6 peptides, FGF34, EDIL3_4, BRNP2_5, SCG1_9, FSTL4_3, and FGF5_5 induced more than a >5-fold cfos expression across both cell lines compared with vehicle.
Cell culture. NS-1 rat neuronal cell line was cultured with RPMI 1640 medium (Gibco) supplemented with 10% FBS and 1% L-glutamine. INS-1 832/13 rat insulinoma cell line (#SCC207) was cultured with RPMI 1640 medium (Gibco) supplemented with 10% FBS, 1% L-glutamine, 10 mM HEPES, 1 mM NaPyruvate and 50 μM β-mercaptoethanol. For peptide activity assay, 3×10^5 NS-1 and INS1 cells were plated in 12 well-plates. The next day, cells were washed twice with warm PBS and starved in serum-free RPMI overnight. Indicated concentrations of NGF (2 nM) or GLP-1 (30 μM) or peptides (100 μg/ml) were added and incubated for 1 hr at 37° C. Cells were washed with PBS and RNA was isolated for cfos expression analysis.
RNA expression analysis. Total RNA was isolated using TRIzol (Thermo Fischer Scientific) and Rneasy mini kits (QIAGEN). RNA was reverse transcribed using the ABI high-capacity cDNA synthesis kit. For qRT-PCR analysis, cDNA, primers and SYBR-green fluorescent dye (ABI) was used. Relative mRNA expression was determined by normalization with Ribosomalprotein S18 (Rsp18) levels using the ΔΔCt method. The primer sequences used are […] and […] for Rsp18 and […] and […] for cfos.

[3] = open-field assay 30 min after single injection; assay type: in vivo, mice; conditions: 5 mg/kg I.P., 30 min post-injection
Method: Open field assay. 8-week-old C57BL/6 mice were transferred to the open-field facility and housed for 7 days for habituation before the test. Mice were weighed and then I.P. injected with either saline or BRP peptide at 5 mg/kg (N=15 mice per group, […] solution diluted in saline, total injection volume 100 ul per mouse). 30 min post-injection, the open-field test was performed in an Open Field Activity Arena (Med Associates Inc., St. Albans, VT. Model ENV-515) mounted with three planes of infrared detectors and within a specially designed sound-attenuating chamber (Med Associates Inc., St. Albans, VT. MED-017M-027). The arena was 43 cm (L)×43 cm (W)×30 cm (H), and the sound-attenuating chamber was 74 cm (L)×60 cm (W)×60 cm (H). Each mouse was placed in the corner of the testing arena and allowed to explore the arena for 10 minutes while being tracked by an automated tracking system. Data was analyzed using software Activity Monitor Version 7.8. Parameters analyzed include distance moved and time spent in the periphery and center of the arena. The periphery was defined as the zone 5 cm away from the arena wall.

[4] = metabolic cages (Columbus comprehensive lab animal monitoring system) after single injection; assay type: in vivo, mice
Method: To study the metabolic effects in more detail, we next used metabolic cages performed with a Columbus comprehensive lab animal monitoring system. C57BL6/J mice were acclimated to the cages and randomized into two groups, followed by an I.P. injection with either vehicle (saline) or 5 mg/kg BRP (N=4/group).
Food intake, energy expenditure and body composition measurements. Measurements of accumulated food intake and VO2 were performed using a Comprehensive Lab Animal Monitoring System at room temperature (20-22° C.) (Oxymax, Columbus Instruments) as previously described. Singly housed mice were acclimated in metabolic cages for at least 24 h before the start of experiment to minimize stress.

[5] = tested on: cfos expression in INS1 cells; assay: cfos expression after 1 h peptide treatment, INS1 cells (qRT-PCR); assay type: cell-based, rat; conditions: GLP-1 30 μM
Text: A feature of many known biologically active peptide hormones is the presence of an amidated C-terminus, which can be important for peptide bioactivity, as for gastrin-releasing peptide neuromedin-B, or for increased peptide stability, as for GLP-1. Therefore, the peptide library was constructed with an amide (NH2) group at the C-terminus as the only modification for comparative studies between peptides (FIG. 2a). In total, we generated a library of 100 peptides for functional biological screening. The peptide solubility was deduced according to its overall charge and reconstituted accordingly to optimal solubility. For all peptides, quality control by mass spectrometry was performed which validated the purity of the synthesized peptides for the primary screen according to their theoretical molecular weight (FIG. 8). Next, we functionally explored the potency of 100 of the peptides in activating cfos expression, a marker of cellular activity, after 1 hour of peptide treatment across two cell lines, Neuroscreen-1, NS-1 (rat neuronal origin) and INS1 cells (rat pancreatic origin) (FIG. 2b). […]
RNA expression analysis. […] Relative mRNA expression was determined by normalization with Ribosomalprotein S18 (Rsp18) levels using the ΔΔCt method. […]

[6] = fasting blood glucose in lean C57BL/6 mice after I.P. injection (no food); assay type: in vivo; conditions: fasted, peptides 5 mg/kg or GLP-1 2 mg/kg I.P.
Method: as §1, §2

In the case of “THRILRALFNLC [Ala substitution on residue 7]”, the “food intake, alanine substitutions compared with BRP” value (“food intake … compared with BRP” for short) [1] is reported as “improves the appetite-suppressing effect of BRP”.
For “THRILRRLFNLA [Ala substitution on residue 12]”, the “food intake … compared with BRP” value [1] was “reduced efficacy in lowering food intake” and the “cfos activation, alanine substitutions in the BRP sequence” value (from here on “cfos activation, alanine substitutions”) [2] was “important to retain full activity”.
In the case of “THRALRRLFNLC [Ala substitution on residue 4]”, the “food intake … compared with BRP” value [1] is reported as “reduced efficacy in lowering food intake”.
In the case of THRILRRLFNLC-NH2 [BRP, THRILRRLFNLC], the “anxiety-like behavior (open field)” value [3] is reported as “does not affect anxiety-like behavior” and the ambulatory activity ([4]; single I.P. injection 5 mg/kg) is reported as “does not alter”.
In the case of “THRILRRLFNLC (listed as Homo sapiens) [non-amidated BRP]”, the “cfos activity in words” value ([2]; 100 μg/ml) is reported as “no activity”.
In the case of “GLP-1: 30-mer peptide ligand for the glucagon receptor family of GPCRs, positive control”, the “elevation of cfos expression (positive control)” value [5] is reported as ~4 fold, the blood glucose [6] is reported as “lowered blood glucose” and the energy expenditure ([4]; single injection GLP-1 2 mg/kg) is reported as “without affecting”. The “food intake (metabolic cages)” value ([4]; single injection GLP-1 2 mg/kg) was “acutely suppresses”, the locomotor activity ([4]; single injection GLP-1 2 mg/kg) was “without affecting” and the meal size ([4]; single injection GLP-1 2 mg/kg) was “acutely suppresses”.
With “THRILARLFNLC [Ala substitution on residue 6]” the “food intake … compared with BRP” value [1] was “reduced efficacy in lowering food intake”.
In the case of “THRIARRLFNLC [Ala substitution on residue 5]”, the “food intake … compared with BRP” value [1] is reported as “reduced efficacy in lowering food intake”.
With “THRILRRLFALC [Ala substitution on residue 10]” the “cfos activation, alanine substitutions” value [2] was “important to retain full activity”.
In the case of “NGF: Nerve Growth Factor, positive control in NS-1 cells [reference compound]”, the “induction of cfos expression (positive control)” value ([2]; NGF 2 nM) is reported as ~10 fold.
In the case of “THAILRRLFNLC [Ala substitution on residue 3]”, the “food intake … compared with BRP” value [1] is reported as “reduced efficacy in lowering food intake” and the “cfos activation, alanine substitutions” value [2] is reported as “important to retain full activity”.
For “THRILRRAFNLC [Ala substitution on residue 8]”, the “food intake … compared with BRP” value [1] was “reduced efficacy in lowering food intake” and the “cfos activation, alanine substitutions” value [2] was “important to retain full activity”.
